Results from the NIST ThermoML archive (doi:10.1021/je020131a).

Experiment: xn = mol fraction of the nth substance listed
Details: 101.3 kPa, Liquid, Falling or rolling sphere viscometry

CCOC(=O)OCC [diethyl carbonate] + CCCCCCCC
Details | viscosity [mPa·s]
293.15 K, x1 = 0.0504 | 0.535
293.15 K, x1 = 0.099 | 0.528
293.15 K, x1 = 0.1947 | 0.529
293.15 K, x1 = 0.2939 | 0.535
293.15 K, x1 = 0.3911 | 0.55
293.15 K, x1 = 0.4965 | 0.574
293.15 K, x1 = 0.6012 | 0.604
293.15 K, x1 = 0.6971 | 0.641
293.15 K, x1 = 0.7996 | 0.684
293.15 K, x1 = 0.8871 | 0.727
293.15 K, x1 = 0.9502 | 0.763
293.15 K, x1 = 1 | 0.795
298.15 K, x1 = 0.0568 | 0.514
298.15 K, x1 = 0.1069 | 0.51
298.15 K, x1 = 0.1985 | 0.511
298.15 K, x1 = 0.2979 | 0.515
298.15 K, x1 = 0.3968 | 0.528
298.15 K, x1 = 0.5035 | 0.551
298.15 K, x1 = 0.605 | 0.578
298.15 K, x1 = 0.7054 | 0.614
298.15 K, x1 = 0.8042 | 0.653
298.15 K, x1 = 0.9035 | 0.698
298.15 K, x1 = 0.9549 | 0.728
298.15 K, x1 = 1 | 0.749
303.15 K, x1 = 0.0504 | 0.485
303.15 K, x1 = 0.1002 | 0.485
303.15 K, x1 = 0.2035 | 0.486
303.15 K, x1 = 0.2953 | 0.494
303.15 K, x1 = 0.3942 | 0.507
303.15 K, x1 = 0.5035 | 0.525
303.15 K, x1 = 0.6019 | 0.55
303.15 K, x1 = 0.7055 | 0.58
303.15 K, x1 = 0.8011 | 0.613
303.15 K, x1 = 0.8999 | 0.654
303.15 K, x1 = 0.9498 | 0.677
303.15 K, x1 = 1 | 0.699
313.15 K, x1 = 0.0495 | 0.436
313.15 K, x1 = 0.0984 | 0.44
313.15 K, x1 = 0.1957 | 0.448
313.15 K, x1 = 0.2957 | 0.459
313.15 K, x1 = 0.3958 | 0.472
313.15 K, x1 = 0.4982 | 0.488
313.15 K, x1 = 0.6036 | 0.508
313.15 K, x1 = 0.6992 | 0.529
313.15 K, x1 = 0.7994 | 0.554
313.15 K, x1 = 0.8992 | 0.586
313.15 K, x1 = 0.9502 | 0.608
313.15 K, x1 = 1 | 0.623

COC(=O)OC [dimethyl carbonate] + C1CCCCC1
Details | viscosity [mPa·s]
293.15 K, x1 = 0.0495 | 0.886
293.15 K, x1 = 0.0987 | 0.814
293.15 K, x1 = 0.2078 | 0.709
293.15 K, x1 = 0.2961 | 0.66
293.15 K, x1 = 0.3974 | 0.626
293.15 K, x1 = 0.5014 | 0.608
293.15 K, x1 = 0.6002 | 0.6
293.15 K, x1 = 0.7028 | 0.593
293.15 K, x1 = 0.7994 | 0.59
293.15 K, x1 = 0.9017 | 0.597
293.15 K, x1 = 0.9513 | 0.609
293.15 K, x1 = 1 | 0.626
298.15 K, x1 = 0.0378 | 0.833
298.15 K, x1 = 0.0808 | 0.776
298.15 K, x1 = 0.1764 | 0.681
298.15 K, x1 = 0.2896 | 0.619
298.15 K, x1 = 0.388 | 0.587
298.15 K, x1 = 0.4938 | 0.567
298.15 K, x1 = 0.5908 | 0.557
298.15 K, x1 = 0.6864 | 0.553
298.15 K, x1 = 0.7918 | 0.555
298.15 K, x1 = 0.8976 | 0.561
298.15 K, x1 = 0.9503 | 0.572
298.15 K, x1 = 1 | 0.585
303.15 K, x1 = 0.0391 | 0.758
303.15 K, x1 = 0.0931 | 0.703
303.15 K, x1 = 0.1875 | 0.632
303.15 K, x1 = 0.2908 | 0.581
303.15 K, x1 = 0.3897 | 0.545
303.15 K, x1 = 0.4962 | 0.522
303.15 K, x1 = 0.5958 | 0.508
303.15 K, x1 = 0.6909 | 0.504
303.15 K, x1 = 0.7975 | 0.507
303.15 K, x1 = 0.8912 | 0.522
303.15 K, x1 = 0.9441 | 0.528
303.15 K, x1 = 1 | 0.536
313.15 K, x1 = 0.101 | 0.605
313.15 K, x1 = 0.1482 | 0.574
313.15 K, x1 = 0.2563 | 0.524
313.15 K, x1 = 0.3646 | 0.495
313.15 K, x1 = 0.4661 | 0.477
313.15 K, x1 = 0.572 | 0.468
313.15 K, x1 = 0.6633 | 0.465
313.15 K, x1 = 0.7699 | 0.47
313.15 K, x1 = 0.8688 | 0.479
313.15 K, x1 = 0.9757 | 0.491
313.15 K, x1 = 0.9935 | 0.493
313.15 K, x1 = 1 | 0.494

COC(=O)OC [dimethyl carbonate] + CCCCCC
Details | viscosity [mPa·s]
293.15 K, x1 = 0.0722 | 0.312
293.15 K, x1 = 0.1448 | 0.315
293.15 K, x1 = 0.2286 | 0.325
293.15 K, x1 = 0.3026 | 0.338
293.15 K, x1 = 0.4102 | 0.359
293.15 K, x1 = 0.5062 | 0.384
293.15 K, x1 = 0.6026 | 0.412
293.15 K, x1 = 0.7052 | 0.451
293.15 K, x1 = 0.7974 | 0.494
293.15 K, x1 = 0.901 | 0.552
293.15 K, x1 = 0.9506 | 0.585
293.15 K, x1 = 1 | 0.626
298.15 K, x1 = 0.082 | 0.306
298.15 K, x1 = 0.1269 | 0.311
298.15 K, x1 = 0.2131 | 0.322
298.15 K, x1 = 0.3197 | 0.336
298.15 K, x1 = 0.3787 | 0.345
298.15 K, x1 = 0.4712 | 0.362
298.15 K, x1 = 0.5121 | 0.37
298.15 K, x1 = 0.6067 | 0.392
298.15 K, x1 = 0.6987 | 0.423
298.15 K, x1 = 0.842 | 0.487
298.15 K, x1 = 0.9248 | 0.53
298.15 K, x1 = 0.9615 | 0.555
298.15 K, x1 = 1 | 0.585
303.15 K, x1 = 0.0468 | 0.287
303.15 K, x1 = 0.0991 | 0.293
303.15 K, x1 = 0.1951 | 0.305
303.15 K, x1 = 0.295 | 0.314
303.15 K, x1 = 0.3832 | 0.327
303.15 K, x1 = 0.4865 | 0.342
303.15 K, x1 = 0.5899 | 0.363
303.15 K, x1 = 0.696 | 0.394
303.15 K, x1 = 0.7947 | 0.433
303.15 K, x1 = 0.8939 | 0.478
303.15 K, x1 = 0.9436 | 0.507
303.15 K, x1 = 1 | 0.536
313.15 K, x1 = 0.0495 | 0.267
313.15 K, x1 = 0.1 | 0.274
313.15 K, x1 = 0.2092 | 0.286
313.15 K, x1 = 0.3093 | 0.296
313.15 K, x1 = 0.4043 | 0.306
313.15 K, x1 = 0.4941 | 0.321
313.15 K, x1 = 0.6052 | 0.347
313.15 K, x1 = 0.7063 | 0.379
313.15 K, x1 = 0.8046 | 0.416
313.15 K, x1 = 0.9014 | 0.458
313.15 K, x1 = 0.9497 | 0.477
313.15 K, x1 = 1 | 0.494

COC(=O)OC [dimethyl carbonate] + CCCCCCC
Details | viscosity [mPa·s]
293.15 K, x1 = 0.05 | 0.407
293.15 K, x1 = 0.094 | 0.405
293.15 K, x1 = 0.2039 | 0.407
293.15 K, x1 = 0.324 | 0.413
293.15 K, x1 = 0.4062 | 0.422
293.15 K, x1 = 0.5059 | 0.441
293.15 K, x1 = 0.6099 | 0.462
293.15 K, x1 = 0.6987 | 0.488
293.15 K, x1 = 0.8086 | 0.527
293.15 K, x1 = 0.9029 | 0.567
293.15 K, x1 = 0.9504 | 0.594
293.15 K, x1 = 1 | 0.626
298.15 K, x1 = 0.0594 | 0.383
298.15 K, x1 = 0.1204 | 0.384
298.15 K, x1 = 0.2132 | 0.385
298.15 K, x1 = 0.3135 | 0.388
298.15 K, x1 = 0.4018 | 0.397
298.15 K, x1 = 0.4716 | 0.406
298.15 K, x1 = 0.6051 | 0.43
298.15 K, x1 = 0.6946 | 0.452
298.15 K, x1 = 0.8031 | 0.489
298.15 K, x1 = 0.902 | 0.528
298.15 K, x1 = 0.9477 | 0.554
298.15 K, x1 = 1 | 0.585
303.15 K, x1 = 0.0586 | 0.37
303.15 K, x1 = 0.0873 | 0.367
303.15 K, x1 = 0.1996 | 0.368
303.15 K, x1 = 0.299 | 0.375
303.15 K, x1 = 0.4009 | 0.388
303.15 K, x1 = 0.5081 | 0.403
303.15 K, x1 = 0.6069 | 0.426
303.15 K, x1 = 0.6979 | 0.454
303.15 K, x1 = 0.8051 | 0.495
303.15 K, x1 = 0.9069 | 0.518
303.15 K, x1 = 0.9638 | 0.518
303.15 K, x1 = 1 | 0.536
313.15 K, x1 = 0.0649 | 0.33
313.15 K, x1 = 0.1157 | 0.328
313.15 K, x1 = 0.3432 | 0.334
313.15 K, x1 = 0.4378 | 0.341
313.15 K, x1 = 0.5458 | 0.355
313.15 K, x1 = 0.6259 | 0.37
313.15 K, x1 = 0.7191 | 0.393
313.15 K, x1 = 0.8128 | 0.416
313.15 K, x1 = 0.8798 | 0.443
313.15 K, x1 = 0.9536 | 0.475
313.15 K, x1 = 0.9822 | 0.485
313.15 K, x1 = 1 | 0.494
